Common to all, as to assay type: cell-based, human
One experiment has as its system ERK. Nature of the experiment: ERK phosphorylation in hCMEC/D3 monolayers, Western blot. The settings on record: normalized to GAPDH.
The subject of another experiment is AKT. Put plainly: AKT phosphorylation. The settings on record: normalized to GAPDH.
The subject of a further experiment is claudin-5. Nature of the experiment: Claudin-5 immunocytochemistry in hCMEC/D3 monolayers, confocal microscopy. The conditions noted are these: 10 nM butyrate 6 h, 1 μM Aβ42 for the last hour; AF647 immunofluorescence.
For a further experiment, the system named is RAGE. Nature of the experiment: RAGE expression in hCMEC/D3 membrane fraction, Western blot. The conditions noted are these: normalized to calnexin. In general terms: A western blot detects proteins with antibodies after separation by electrophoresis.
The mark [1] stands for this setting: 10 nM butyrate 6 h with 50 nM insulin for 5 min, p<0.05.

For the compound `CCCC(=O)O` [butyrate, sodium butyrate], the “ERK phosphorylation, fold increase vs insulin alone-treated group” value in the experiment on ERK (setting [1]) is listed as roughly 1.3 fold. Further, the “AKT phosphorylation, fold increase vs insulin alone-treated group” value in the experiment on AKT (setting [1]) stood at 3 fold. Besides, in the experiment with claudin-5, the “Claudin-5 expression vs Aβ42 alone group” value is given as “increased”. The “RAGE expression vs Aβ42 alone (reversal of Aβ42-induced increase)” value with RAGE (butyrate 5 h then co-incubation with 1 μM Aβ42 for 1 h) is recorded as “not significant”.
As for “Aβ42: unlabeled amyloid beta 42 peptide supplied by Aapptec [reference compound]”, the “RAGE expression, fold increase vs control” value in the experiment with RAGE (1 μM Aβ42 for 1 h alone, p<0.05) was 2.4 fold.
For “insulin: insulin used at 50 nM to stimulate insulin signaling”, in the experiment on ERK (50 nM insulin 5 min alone, p<0.001), the “ERK phosphorylation, fold increase vs untreated group” value was determined as 3 fold. Further, the “AKT phosphorylation vs untreated group” value with AKT (50 nM insulin 5 min alone) is given as “not statistically significant”.

Source of the values: doi:10.1101/2025.10.24.684335v1 (bioRxiv, 2025).
